In the supplement of paper PMC8882468:

Legend:
Assay in all cases: CTG-3D luminescence at 96 h relative to day-0 seeding control (ratio to day 0); higher = more growth / less cytotoxicity; PDxO 3D drug screen (set 2), 96 h, CTG-3D normalised to day-0 seeding control.
HCI-002 = tested on: HCI-002 (organoid from a triple-negative breast cancer xenograft)
HCI-019 = tested on: HCI-019 (organoid from a triple-negative breast cancer xenograft)
HCI-023 = tested on: HCI-023 (organoid from a triple-negative breast cancer xenograft)
HCI-024 = tested on: HCI-024 (organoid from a breast cancer xenograft)
HCI-027 = tested on: HCI-027 (organoid from a triple-negative breast cancer xenograft)

C[C@@H](Nc1cc(F)cc(F)c1)c1cc(C(=O)N(C)C)cc2c(=O)cc(N3CCOCC3)oc12 [AZD-8186]
CTG-3D luminescence at 96 h
Conditions	12.5 pM	0.00025 µM	0.005 µM	0.1 µM	1 µM	10 µM	100 µM	625 fM
HCI-002, days in culture: 127	2.49	2.9	3.08	3.46	2.69	2.62	1.37	2.78
HCI-002, days in culture: 155	4.16	4.76	5.31	5.43	4.16	3.89	1.67	4.15
HCI-002, days in culture: 168	3.35	3.58	4.3	3.62	3.22	2.87	0.73	4.14
HCI-019, days in culture: 173	3.42	1.4	1.36	2.98	2.28	0.532	0.37	1.05
HCI-019, days in culture: 194	1.94	1.36	1.46	2.1	1.87	1.3	0.367	1.03
HCI-019, days in culture: 215	1.9	1.48	0.854	1.62	0.82	1.39	0.374	1.8
HCI-023, days in culture: 223	1.94	2.6	1.75	1.98	1.44	1.93	1.14	1.74
HCI-023, days in culture: 238	1.54	1.51	1.31	1.41	1.7	1.3	1.05	1.54
HCI-023, days in culture: 252	2.12	1.88	1.63	1.81	1.91	2.09	1.5	1.99
HCI-024, days in culture: 202	1.88	0.916	0.693	1.33	0.84	1.61	0.461	1.39
HCI-024, days in culture: 231	1.33	1.25	1.21	1.01	1.32	0.93	0.399	1.35
HCI-024, days in culture: 254	1.17	1.68	1.81	2.04	0.901	1.55	0.743	1.01
HCI-027, days in culture: 145	1.31	2.65	1.81	1.94	0.882	1.12	0.387	1.74
HCI-027, days in culture: 158	0.987	2.74	2.32	1.39	1.24	1.87	0.581	4.36
HCI-027, days in culture: 164	1.52	0.955	2.29	2.94	1.28	1.36	0.618	1.46
HCI-027, days in culture: 176	2.9	2.55	1.1	1.9	1.15	0.842	0.201	1.89
HCI-027, days in culture: 186	1.9	2.1	2.54	1.7	0.519	1.46	0.286	2.6
